Results on two compounds are retold here after patent publication US20240307390A1, “METHODS AND COMPOSITIONS FOR CANCER TREATMENT BY TARGETING AXL SIGNALING” (Sanford Burnham Prebys Medical Discovery Institute, priority 2023, published 2024).

The subject of one experiment is EYA2. In words: EYA2 steady-state level, stability and polyubiquitylation in cells. The settings on record: data not shown. The format is cell-based. The text has this: Input proteins are shown. […] FIG. 3C represents a putative EYA2 CPD motif across species and compared with other SCF^FBXW7 substrates. […] FIGS. 3F and 3G represent WT and Flag-EYA2-2A stability in MDA-MB-231 cells (FIG. 3F) and endogenous EYA2 in WT and Fbxw7 KO HCT116 cells (FIG. 3G). […] FIG. 3K represents flag-EYA2 stability in MDA-MB-231 cells treated with vehicle (DMSO) or GSK3βi. […] Input proteins shown. […] FIG. 3O represents a model of FBXO7 inhibition of GSK3β-SCFFBXW7-mediated degradation of EYA2.
FBXW7 expression enhanced EYA2 K48-linked but not K63-linked polyubiquitylation (FIG. 3D), indicating SCFFBXW7 regulated EYA2 degradation. IP confirmed EYA2's CPD was required for FBXW7 binding (FIG. 3E). In contrast, FBXO7-EYA2 binding was independent of EYA2's CPD (data not shown). […] In isogenic WT and Fbxw7 knockout (KO) cell lines, the steady-state level and stability of EYA2 increased and polyubiquitylation decreased in the absence of Fbxw7 (FIGS. 3G, 3H).
SCFFBXW7 substrate recognition is generally triggered by GSK3β-mediated phosphorylation of the substrate CPD. Recombinant SCFFBXW7 bound a synthetic peptide corresponding to phosphorylated EYA2 CPD (FIG. 3I). […] To determine if EYA2 degradation was regulated by GSK3β, we first confirmed endogenous GSK3 β interacted with EYA2 in vivo by IP (data not shown). […]

In the next experiment the test system is FBXO7-EYA2 binding. In words: Co-IP of FBXO7-EYA2 binding in treated cells. The experiment is classed as cell-based. The following applies: treatment of cells; data not shown. How it is done: To gain insight into how FBXO7 maintains mesenchymal phenotypes and immune evasion of cancer cells, protein mass spectrometry was conducted to identify putative interacting proteins (FIG. 2A). Eyes Absent Homolog 2 (EYA2), a co-activator of the SIX family of homeobox transcription factors with Tyr phosphatase activity, was one of the most abundant FBXO7-interacting proteins (FIG. 2B). Immunoprecipitation (IP) and in vitro pull-down assays confirmed that FBXO7 interacted with EYA2, but not directly with co-transcriptional partner SIX1 (FIGS. 2C and 2D). EYA2's transactivation domain (AD, aa1-252) but not EYA domain (ED, aa253-538), which interacts with SIX proteins, was required for FBXO7 interaction (FIG. 2E). FBXO7's F-box motif was dispensable for EYA2 interaction (FIG. 2F).
SCFFBXW7 substrate recognition is generally triggered by GSK3β-mediated phosphorylation of the substrate CPD. Recombinant SCFFBXW7 bound a synthetic peptide corresponding to phosphorylated EYA2 CPD (FIG. 3I). […] To determine if EYA2 degradation was regulated by GSK3β, we first confirmed endogenous GSK3 β interacted with EYA2 in vivo by IP (data not shown). […] GSK3β stimulated SCFFBXW7-mediated polyubiquitylation of EYA2 in in vitro ubiquitylation reactions (FIG. 3J). […] Therefore, EYA2 is degraded by SCFFBXW7 in a GSK3β-dependent manner.

A further experiment has as its system GAS6 in MDA-MB-231 cells. In words: GAS6 expression and protein in MDA-MB-231 cells. The format is cell-based, human. The text has this:
(§1) FIGS. 4E and 4F represent ChIP analysis of Flag-EYA2 (FIG. 4E) and Flag-SIX1 (FIG. 4F) binding Gas6 promoter in MDA-MB-231 cells transfected with the indicated siRNAs. FIGS. 4G-4I show GAS6 expression in MCF7 cells transfected with indicated vectors (FIG. 4G) and MDA-MB-231 cells expressing indicated shRNAs (FIG. 4H) or treated with vehicle or EYA2i (FIG. 4I). FIGS. 4J and 4K show immunoblots of AXL signaling proteins in MDA-MB-231 cells transfected with control or FBXO7 siRNA (FIG. 4J) or treated with vehicle or EYA2i (FIG. 4K).
To determine how the FBXO7/EYA2-SCFFBXW7 axis maintains mesenchymal and immune evasion phenotypes of cancer cells, chromatin IP sequencing (ChIP-seq) profiles of EYA2 binding in control and FBXO7 KD cells (FIGS. 4A and 4B) were compared. FBXO7 KD decreased EYA2 binding at various genomic regions, including promoters, exons, and introns (data not shown). […] GAS6 was chosen for further analysis because of the link between AXL and mesenchymal phenotypes in TNBC cells. ChIP confirmed that EYA2 and SIX1 bound the Gas6 promoter and binding was diminished by KD of FBXO7 or co-transcriptional counterpart (FIGS. 4E and 4F). EYA2-2A also bound the Gas6 promoter (data not shown), indicating independence of CPD phosphorylation. Further, FBXO7 bound the Gas6 promoter and FBXO7 or ΔF-FBXO7 expression stimulated EYA2 binding (data not shown). […]

The next experiment relates to AXL signaling. In words: Immunoblots of AXL signaling proteins in MDA-MB-231 cells. The following applies: FIG. 4K. The format is cell-based, human.
Text: as §1
In line with the role of GAS6 as an AXL ligand, FBXO7 KD decreased total AXL and phospho-AXLTyr702 and decreased AXL surface expression (FIGS. 4J and 4M), indicating inhibition of AXL signaling. […] GAS6 expression rescued the decreased total and phospho-AXLTyr702 in FBXO7 KD cells (FIG. 4L). Consistent with a role of SCFFBXW7 in antagonizing FBXO7 functions, FBXW7 KD rescued the decreased GAS6 and attenuated AXL signaling in FBXO7 KD cells (data not shown). […] Expression of proinflammatory cytokine suppressor and AXL signaling effector SOCS1 partially rescued the increased IFNα/β, CXCL9/10, and HLA-A/B induced by FBXO7 KD (FIG. 4O). Further, GAS6 expression rescued the increased HLA-A/B/C surface expression on FBXO7 KD cells (data not shown).

For the next experiment, the system named is cancer cells. The experiment in a line: Cancer cell viability upon doxorubicin treatment. The experiment is classed as cell-based. The following applies: partially rescued by GAS6 expression, FIG. 5H. An excerpt: FIGS. 5A and 5B show a gap closure assay of control, FBXO7 KD, and FBXO7 KD+GAS6 MDA-MB-231 (FIG. 5A) and BT-549 (FIG. 5B) cells. FIGS. 5C and 5D show the migration (FIG. 5C) and invasion (FIG. 5D) of indicated control, FBXO7 KD, and FBXO7 KD+GAS6 cells. […] FIGS. 5G and 5H show viabilities of indicated control, FBXO7 KD, or FBXO7 KD+GAS6 (FIG. 5G) or vehicle or EYA2i treated (FIG. 5H) cells upon doxorubicin treatment.
FBXO7 KD diminished mesenchymal cancer cell migration and invasion in in vitro assays (data not shown). These FBXO7 KD effects were largely rescued by GAS6 expression (FIGS. 5A-5D). […] Again, these phenotypes were largely rescued by GAS6 expression (FIGS. 5E and 5F). […] Consistent with an antagonistic role of SCFFBXW7, FBXW7 KD partially rescued the reduced migration of FBXO7 KD cells and enhanced EYA2i sensitivity (data not shown).

The test system of experiment [1] is mesenchymal and immune-stimulatory genes, cell morphology. In words: Gene expression and cell morphology after EYA2 Tyr phosphatase inhibitor treatment. The format is cell-based. The following applies: similar to EYA2 KD (flat, cuboidal morphology, decreased mesenchymal, induced immune-stimulatory genes); data not shown. An excerpt:
EYA2 KD induced a flat, cuboidal morphology, decreased mesenchymal gene expression, and induced immune-stimulatory genes (FIGS. 2G-2I), phenocopying FBXO7 KD. […] Expression of WT EYA2, but not Tyr phosphatase mutant EYA2D274N or SIX binding mutant EYA2A532R, largely rescued the decreased mesenchymal and increased immune-stimulatory genes in FBXO7 KD cells (data not shown).

A further experiment relates to 4T1-luc breast tumors. In words: 4T1-luc TNBC tumors in syngeneic immunocompetent mice. The format is in vivo. How it is done:
(§2) FIGS. 6A and 6B show growth curves (FIG. 6A) and images (FIG. 6B) of control, FBXO7 KD, and FBXO7 KD+GAS6 MDA-MB-231 breast tumors in immunocompromised mice. […] FIGS. 6E and 6F show growth curves (FIG. 6E) and images (FIG. 6F) of control and GAS6-expressing MDA-MB-231-luc breast tumors in immunocompromised mice treated with vehicle or EYA2i.
Immunocompetent mice bearing 4T1-luc TNBCs were treated with vehicle or EYA2i and isotype IgG (control) or anti-PD-1 antibody (FIG. 6H).

For experiment [2], the system named is MDA-MB-231-luc breast tumors. The experiment in a line: Orthotopic MDA-MB-231-luc breast tumors in immunocompromised mice. The format is in vivo. The following applies: partially rescued by GAS6 expression.
Text: as §2

Take `NS(=O)(=O)OC[C@@H]1C[C@@H](n2ccc3c(N[C@H]4CCc5ccccc54)ncnc32)C[C@@H]1O` [MLN4924]: the EYA2 levels result in the experiment on EYA2 is “increased EYA2 levels”. The FBXO7-EYA2 binding result with FBXO7-EYA2 binding is reported as “did not disrupt FBXO7-EYA2 binding”.

For the compound `O=C(N/N=C/c1ccc(Sc2ccccn2)o1)c1cccc(F)c1` [EYA2i, MLS000544460], the “total and secreted GAS6 protein” value in the experiment with GAS6 in MDA-MB-231 cells (data not shown) was “decreased total and secreted GAS6 protein”. In addition, in the experiment on GAS6 in MDA-MB-231 cells (mesenchymal MDA-MB-231 cells, FIG. 4I), the GAS6 expression result is “decreased GAS6 expression”. For the same compound, the AXL signaling result in the experiment on AXL signaling is reported as “suppressed AXL signaling”. Further, the “sensitivity of cancer cells to doxorubicin treatment” value with cancer cells is “sensitized cancer cells to doxorubicin treatment”. The “effects on gene expression and cell morphology” value in experiment [1] is “induced similar effects on gene expression and cell morphology”. The “intertumoral infiltration of CD8+T and NK cells” value in the experiment on 4T1-luc breast tumors (flow cytometric and IHC analyses of 4T1-luc tumors) is “stimulated”. For the same compound, the “H-2Kd MHC class I alloantigen surface expression on 4T1-luc tumor cells” value in the experiment on 4T1-luc breast tumors (flow cytometry, FIG. 6L) was “increased”. Further, the “4T1-luc tumor growth / antitumor response” value with 4T1-luc breast tumors (immunocompetent mice, FIGS. 6H and 6I) is “modestly reduced”. The lung metastases entry in experiment [2] (MDA-MB-231-luc) was “diminished”. In experiment [2] (orthotopic MDA-MB-231-luc breast tumors), the “tumor cell autonomous growth” value is on record as “diminished”.
